From publication PMC6556873, “Rapid Covalent-Probe Discovery by Electrophile-Fragment Screening” (Journal of the American Chemical Society, 2019)
Where two headings read alike, the source gives them in different places.

Key:
in vitro [1] = assay: in vitro; parameters: species or system CCD841, HEK293; settings: human, hb2 cells, read-out: HB-2 Cells Viability (%)
BSA = molecular target: T1, BSA (Bos taurus, UniProt P02769); parameters: Intact protein LC/MS covalent labelling, fragments in pools of five, 200 uM each, 4 °C; settings: 24 h, 4 °C, pool of five; 200 µM; covalent
T1 construct: gene ALB

NUDT7 = molecular target: T2, NUDT7 (Homo sapiens, UniProt P0C024); parameters: Intact protein LC/MS covalent labelling, fragments in pools of five, 200 uM each, 4 °C; settings: 24 h, 4 °C, pool of five; 200 µM; covalent
T2 construct: residues 14-235, E. coli, pNIC28-Bsa4, N-terminal His6 tag removed by TEV, construct 26672 Da

OTUB2 (OTUB2A) = molecular target: T3, OTUB2 (OTUB2A) (Homo sapiens, UniProt Q96DC9); parameters: Intact protein LC/MS covalent labelling, fragments in pools of five, 200 uM each, 4 °C; settings: 24 h, 4 °C, pool of five; 200 µM; covalent
T3 construct: full length residues 1-234, E. coli BL21(DE3)-R3, His tag removed by TEV, construct 27312 Da
T3 sequence (Q96DC9 1-234): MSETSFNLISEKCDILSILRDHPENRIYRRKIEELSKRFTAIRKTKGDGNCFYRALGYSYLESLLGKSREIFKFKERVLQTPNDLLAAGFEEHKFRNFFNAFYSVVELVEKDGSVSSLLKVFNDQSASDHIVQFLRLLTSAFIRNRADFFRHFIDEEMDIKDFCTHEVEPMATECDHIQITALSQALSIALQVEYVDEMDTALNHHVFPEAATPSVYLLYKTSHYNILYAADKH

PCAF = molecular target: T4, PCAF (Homo sapiens, UniProt Q92831); parameters: Intact protein LC/MS covalent labelling, fragments in pools of five, 200 uM each, 4 °C; settings: 24 h, 4 °C, pool of five; 200 µM; covalent
T4 construct: gene KAT2B

in vitro [2] = assay: in vitro; parameters: species or system HB2, CCD841; settings: human, hek293 cells
in vitro [3] = assay: in vitro; parameters: species or system HB2, HEK293; settings: human, ccd841 cells

T1 sequence (P02769 whole entry, the tested form may be a part): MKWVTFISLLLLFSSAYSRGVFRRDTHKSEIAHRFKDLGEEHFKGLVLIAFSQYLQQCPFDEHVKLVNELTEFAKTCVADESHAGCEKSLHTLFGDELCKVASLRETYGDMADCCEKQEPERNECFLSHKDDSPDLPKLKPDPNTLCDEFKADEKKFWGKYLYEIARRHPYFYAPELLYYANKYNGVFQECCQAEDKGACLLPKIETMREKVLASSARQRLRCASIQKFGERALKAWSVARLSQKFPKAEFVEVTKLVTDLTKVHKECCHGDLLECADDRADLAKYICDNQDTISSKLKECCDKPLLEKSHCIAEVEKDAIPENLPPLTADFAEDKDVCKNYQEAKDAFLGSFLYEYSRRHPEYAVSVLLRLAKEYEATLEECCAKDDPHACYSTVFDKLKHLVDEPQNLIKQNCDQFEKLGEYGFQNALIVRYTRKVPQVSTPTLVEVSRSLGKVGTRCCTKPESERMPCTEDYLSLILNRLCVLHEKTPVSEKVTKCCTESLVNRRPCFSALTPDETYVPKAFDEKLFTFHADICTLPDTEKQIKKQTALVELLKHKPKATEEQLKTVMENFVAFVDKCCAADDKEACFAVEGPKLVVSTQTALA
T2 sequence (P0C024 14-235): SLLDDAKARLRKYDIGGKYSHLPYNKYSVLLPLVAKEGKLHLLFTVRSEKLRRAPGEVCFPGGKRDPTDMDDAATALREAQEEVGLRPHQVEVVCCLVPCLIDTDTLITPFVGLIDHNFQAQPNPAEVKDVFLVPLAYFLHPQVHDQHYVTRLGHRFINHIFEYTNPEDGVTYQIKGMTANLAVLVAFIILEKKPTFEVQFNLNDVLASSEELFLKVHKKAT
T4 sequence (Q92831 whole entry, the tested form may be a part): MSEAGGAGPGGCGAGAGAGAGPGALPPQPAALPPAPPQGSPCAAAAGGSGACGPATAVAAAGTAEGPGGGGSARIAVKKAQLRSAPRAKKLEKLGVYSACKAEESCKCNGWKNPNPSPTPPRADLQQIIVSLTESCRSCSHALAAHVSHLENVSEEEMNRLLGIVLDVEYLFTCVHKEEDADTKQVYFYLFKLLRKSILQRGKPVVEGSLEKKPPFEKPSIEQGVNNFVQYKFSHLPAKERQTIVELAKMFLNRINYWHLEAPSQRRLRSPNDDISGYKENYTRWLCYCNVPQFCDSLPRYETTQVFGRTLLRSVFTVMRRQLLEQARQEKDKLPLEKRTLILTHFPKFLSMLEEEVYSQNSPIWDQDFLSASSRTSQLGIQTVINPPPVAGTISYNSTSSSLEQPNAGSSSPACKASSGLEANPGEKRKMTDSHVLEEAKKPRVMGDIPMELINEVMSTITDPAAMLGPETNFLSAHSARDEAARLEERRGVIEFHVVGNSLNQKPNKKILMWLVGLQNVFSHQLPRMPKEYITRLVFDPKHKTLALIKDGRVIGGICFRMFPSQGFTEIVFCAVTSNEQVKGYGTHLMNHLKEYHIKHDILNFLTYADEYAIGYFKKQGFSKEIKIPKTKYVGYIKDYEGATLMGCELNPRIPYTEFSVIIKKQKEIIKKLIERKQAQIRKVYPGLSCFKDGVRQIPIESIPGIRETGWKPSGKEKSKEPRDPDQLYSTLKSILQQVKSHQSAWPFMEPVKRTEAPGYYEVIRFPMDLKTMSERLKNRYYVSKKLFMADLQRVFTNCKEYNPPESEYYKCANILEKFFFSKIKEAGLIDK

| BSA (BSA) | NUDT7 (NUDT7) | OTUB2 (OTUB2 (OTUB2A)) | PCAF (PCAF) | Compound | viability at 48 h, 10 µM (in vitro [1]) [%] | viability at 48 h, 10 µM (in vitro [2]) [%] | viability at 48 h, 10 µM (in vitro [3]) [%] |
| --- | --- | --- | --- | --- | --- | --- | --- |
| 0 | 0 | 0.27 | 0 | O=C(CCl)NNC(=O)C1COc2ccccc2O1 (stereo not drawn) [PCM-0102384] | 86.6 | 90.7 | 70.3 |
| 0 | 0.16 | 0.21 | 0 | O=C(CCl)Nc1ccc([N+](=O)[O-])cc1Cl [PCM-0102392] | 43.5 | 43.8 | 53.9 |
| 0 | 0 | 0.22 | 0 | Cc1cc(C)cc(NC(=O)CCl)c1 [PCM-0102394] | 31.4 | 22.3 | 69.9 |
| 0 | 0.12 | 0.54 | 0 | O=C(CCl)Nc1cccc2ccccc12 [PCM-0102396] | 16.3 | 2.4 | 55.8 |
| 0 | 0 | 0 | 0 | Cc1ccc(C)c(NC(=O)CCl)c1 [PCM-0102398] | 59.4 | 51.5 | 62.3 |
| 0 | 0 | 0 | 0 | O=C(CCl)Nc1ccc([N+](=O)[O-])cc1C(F)(F)F [PCM-0102406] | 81.5 | 71.9 | 83.1 |
| 0 | 0.1 | 0.23 | 0 | O=C(CCl)Nc1ccc2c(c1)OCCCO2 [PCM-0102409] | 29.6 | 6.9 | 51.7 |
| 0.21 | 0 | 0 | 0 | COc1cccc(NC(=O)CCl)c1 [PCM-0102410] | 34.1 | 7.5 | 63.5 |
| 0 | 0.16 | 0.07 | 0 | O=C(CCl)Nc1cc(Cl)ccc1C(=O)O [PCM-0102412] | 99.3 | 89.4 | 100 |

More lines, now with the values behind:

| Compound | BSA (BSA) | NUDT7 (NUDT7) | OTUB2 (OTUB2 (OTUB2A)) | PCAF (PCAF) | viability at 48 h, 10 µM (in vitro [1]) [%] | viability at 48 h, 10 µM (in vitro [2]) [%] | viability at 48 h, 10 µM (in vitro [3]) [%] |
| --- | --- | --- | --- | --- | --- | --- | --- |
| O=C(CCl)N1CCN(c2ncc(C(F)(F)F)cc2Cl)CC1 [PCM-0102378] | 0 | 0.14 | 0.05 | 0 | 1.8 | 1.8 | 2.9 |
| Cc1ccc(S(=O)(=O)N2CCN(C(=O)CCl)CC2)cc1C [PCM-0102379] | 0 | 0.1 | 0 | 0 | 1.8 | 2.7 | 22.6 |
| O=C(CCl)N1N=C(c2ccco2)CC1c1ccco1 (stereo not drawn) [PCM-0102380] | 0 | 0.54 | 0 | 0 | 55.7 | 40.4 | 63.4 |
| N#CC(c1ccccc1)N1CCN(C(=O)CCl)CC1 (stereo not drawn) [PCM-0102381] | 0 | 0.11 | 0 | 0 | 46.7 | 31.9 | 66.2 |
| C=CC(=O)Nc1ccc(F)c(F)c1 [PCM-0102385] | 0 | 0 | 0 | 0 | 104 | 66.1 | 112 |
| Cl.O=C(CCl)N1CCN(Cc2ccccc2F)CC1 [PCM-0102387] | 0 | 0 | 0.32 | 0 | 24 | 35.1 | 67.2 |
| O=C(CCl)Nc1cc2[nH]c(=O)[nH]c2cc1Br [PCM-0102388] | 0 | 0 | 0.56 | 0 | 11.4 | 1.2 | 38.6 |
| O=C(CCl)NCC(=O)N1CCCC1 [PCM-0102391] | 0 | 0 | 0 | 0 | 106 | 116 | 101 |
| O=C(CCl)N1CCCC1c1cccs1 (stereo not drawn) [PCM-0102393] | 0 | 0.36 | 0 | 0 | 7.5 | 2.5 | 39 |
| N#Cc1ccccc1S(=O)(=O)N1CCN(C(=O)CCl)CC1 [PCM-0102395] | 0 | 0.28 | 0 | 0 | 11.2 | 9.7 | 62.6 |
| Cc1ccc(CN(C)C(=O)CCl)o1 [PCM-0102399] | 0 | 0.05 | 0 | 0 | 25.7 | 31.8 | 56.5 |
| CC(NC(=O)CCl)C12CC3CC(CC(C3)C1)C2 (stereo not drawn) [PCM-0102402] | 0 | 0.07 | 0.24 | 0 | 67.3 | 55.2 | 73.3 |
| Cl.O=C(CCl)N1CCN(C2CCS(=O)(=O)C2)CC1 (stereo not drawn) [PCM-0102405] | 0 | 0 | 0 | 0 | 107 | 90.2 | 87.8 |
| O=C(CCl)NC(=O)NC1CC1 [PCM-0102411] | 0 | 0 | 0 | 0 | 96.7 | 109 | 84.9 |
| C=CC(=O)Nc1cccc(F)c1C [PCM-0102413] | 0 | 0 | 0 | 0 | 100 | 86.8 | 86 |
| O=C(CCl)N1CCSc2ccccc21 [PCM-0102415] | 0 | 0.1 | 0.16 | 0 | 30.2 | 22.4 | 60.6 |
| CS(=O)(=O)N1CCN(C(=O)CCl)CC1 [PCM-0102417] | 0 | 0 | 0 | 0 | 89.4 | 70.1 | 78.8 |
| C=CC(=O)N1CCN(C(=O)OC(C)(C)C)CC1 [PCM-0102419] | 0 | 0.16 | 0 | 0 | 100 | 90.3 | 104 |
